# Where two headings read alike, the source gives them in different places.
# How the values were obtained:
# MSCs = experiment: Stress inducers/inhibitors: Jagged1 expression and ROS production in MSCs; assay type: cell-based, mouse
# Text: Next, which signaling pathway is responsible for Jagged1 induction after chemotherapy in osteoblast lineage cells was investigated. Chemotherapy generates many stress responses in cells, including endoplasmic reticulum stress (ER stress), and oxidative stress. Some of the stress conditions have been associated with the regulation of Jagged1 expression (Paul et al., 2014). Several treatments were used to mimic or inhibit these stress responses and then Jagged1 mRNA and protein levels were analyzed within the cells.
# 293T, H29-Clone #7, MC3T3-E1 Clone #4(denoted as MC3T3 for abbreviation thereafter), MCF7TR, mouse mesenchymal stromal cell (MSC, isolated from BALB/c), 4T1.2, SCP28, SCP28-Vector and -Jagged1 cells, SCP28, RAW264.7, and SUM1315-M1B1 cells were cultured according to American Type Culture Collection instructions and the inventors' previous studies (Ell et al., 2013; Ren et al., 2008; Sethi et al., 2011; Zheng et al., 2014). MSC cells were derived previously and were cultured in DMEM supplemented with 10% FBS, 30 ng/ml bFGF, 100 U/ml penicillin, and 100 μg/ml streptomycin (Ren et al., 2008). All plasmids were transfected into different cell lines using Lipofectamine 2000 following the manufacturer's manual (Life Technologies, CA, USA). To generate stable cell lines, a pLEX-MCS based lentivirus vector or a pMSCV-hygro based retrovirus vector was used in our study. Lentiviruses were packaged in HEK293T cells while retroviruses were packaged by using H29 cell line. Conditional media from these packaging cells containing viruses were collected 2 days and 3 days after transfection. Recipient cell lines were exposed to conditional media containing viruses supplemented with 2 μg/mL Polybrene for 48 h. Infected cells were selected with puromycin or hygromycin to generate stable expressing cell lines. 293T and H29clone #7 are cell lines from female humans. All other cancer cell lines are breast cancer cell lines from either female human or mouse.
# [1] = mouse, in vivo
# Description: (§1) To analyze liver toxicity, the activity of alanine aminotransferase (ALT) and aspartate aminotransferase (AST) in the sera of these mice after the respective drug treatments was measured.
# (§2) For IgG or 15D11 antibody treatment, mice were i.p. injected at the dosing of 10 mg/kg, twice a week.
# [2] = In vivo toxicity of 15D11 (body weight, GI histology, ALT/AST, CBC, T cells)
# Description: as §1, §2
# [3] = test system: Notch downstream genes (human HES2, HEY1, HEY2); experiment: Notch downstream gene expression in tumor cells co-cultured with MSC after chemotherapy; assay type: cell-based; details: co-culture tumor cells after chemotherapy
molecule,measurement,setting,value
"C[C@H]1CCC/C=C/[C@@H]2C[C@H](O)C[C@H]2[C@H](O)/C=C/C(=O)O1 [Brefeldin A (BFA), Brefeldin A]",Jagged1 expression in MSCs,MSCs,did not induce Jagged1 expression
ClC(Cl)(Cl)Cl [CCl4],liver toxicity: ALT and AST activity in sera,[1],dramatic increase
O=S1(=O)N[C@@]2(CN1CC(F)(F)F)[C@@H]1CC[C@H]2Cc2ccc(/C=C/CN3CCC(C(F)(F)F)CC3)cc2C1 [GSI],general toxicity based on body weight measurement,"[2]; 15D11 10 mg/kg, twice a week",significant weight loss
same,GI track toxicity (H&E and Alcian blue staining),"[2]; mouse, in vivo",significant goblet cell metaplasia
same,liver toxicity: ALT and AST activity in sera,"[2]; mouse, in vivo",no change
OO [H2O2],Jagged1 expression in MSCs,MSCs,induced a strong Jagged1 expression
CC(=O)N[C@@H](CS)C(=O)O [N-Acetyl Cysteine],block of cisplatin and docetaxel induced ROS production,MSCs; MSCs,completely blocked
same,block of cisplatin-induced Jagged1 expression,MSCs; MSCs,completely blocked
CC(=O)O[C@@]12CO[C@@H]1C[C@H](O)[C@@]1(C)C(=O)[C@H](O)C3=C(C)[C@@H](OC(=O)[C@H](O)[C@@H](NC(=O)OC(C)(C)C)c4ccccc4)C[C@@](O)([C@@H](OC(=O)c4ccccc4)[C@H]21)C3(C)C [docetaxel],"Notch downstream genes HES2, HEY1, HEY2",[3],significantly upregulated
same,ROS production in MSCs,MSCs,induced ROS production
Tunicamycin,Jagged1 expression in MSCs,MSCs,did not induce Jagged1 expression

# — patent publication US20200237909A1, “METHODS OF TREATING OR PREVENTING BREAST CANCER METASTASES USING ANTIBODIES TO JAGGED1 AND CHEMOTHERAPEUTIC AGENTS” (The Trustees of Princeton University, priority 2017, published 2020)
